The nature of experiment [1]: Binding activity against 5-hydroxytryptamine 3 receptor from rat cortex homogenate using [3H]-Q-ICS 205-930 as radioligand.
Experiment [2] can be described thus: Binding activity against 5-hydroxytryptamine 2C receptor from pig cortex membrane using [3H]mesulergine as radioligand.
Experiment [3] in a line: Binding activity against 5-hydroxytryptamine 3 receptor from rat cortex homogenate using [3H]-Q-ICS 205-930 as radioligand. This is another data set of the same source.
The nature of experiment [4]: Binding activity against 5-hydroxytryptamine 3 receptor from rat cortex homogenate using [3H]-Q-ICS 205-930 as radioligand; NA Not Available.

Bounds are passed on as bounds.

The results in this text go back to BindingDB's records for doi:10.1021/jm00010a025 (Merck Sharp & Dohme Research Laboratories, 1995).

Broadly, the IC50 is the concentration that inhibits the measured activity by half. Regarding `CN(C)CCc1c[nH]c2ccc(Cc3nnn(C)n3)cc12`, the IC50 in experiment [1] was 79.4 nM.

`CCn1nnnc1Cc1ccc2[nH]cc(CCN(C)C)c2c1`: the 50% inhibitory concentration (IC50) in experiment [2] is over 10 µM; in experiment [1] it was 25.1 nM.

Turning to `CCn1nnc(Cc2ccc3[nH]cc(CCN(C)C)c3c2)n1`, the IC50 in experiment [1] came to 126 nM.

As to `CN(C)CCc1c[nH]c2ccc(Cn3ccnc3)cc12`, the IC50 in experiment [2] amounted to 3.98 µM; in experiment [3], 31.6 nM.

For `CN(C)CCc1c[nH]c2ccc(Cn3cnnn3)cc12`, the values for the IC50 in experiment [2] and in experiment [1] were 2 µM and 39.8 nM, respectively.

As for `CN(C)CCc1c[nH]c2ccc(Cc3ncnn3C)cc12`, the results for the concentration for half-maximal inhibition (IC50) in experiment [2] and in experiment [3] were over 10 µM and 100 nM, respectively.

For the compound `CN(C)CCc1c[nH]c2ccc(Cc3nncn3C)cc12`, the IC50 in experiment [1] is 25.1 nM.

`CN(C)CCc1c[nH]c2ccc(Cn3ncnn3)cc12`: the IC50 in experiment [2] was 1 µM; in experiment [1] it was 39.8 nM.

Turning to `CN(C)CCc1c[nH]c2ccc(Cc3nnn[nH]3)cc12`, the concentration for half-maximal inhibition (IC50) in experiment [2] is over 10 µM; in experiment [1], 3980 nM.

As to `CN(C)CCc1c[nH]c2ccc(Cn3ccnn3)cc12`, the concentration for half-maximal inhibition (IC50) in experiment [4] came out at 50.1 nM.

As to `Cc1nccn1Cc1ccc2[nH]cc(CCN(C)C)c2c1`, the figures for the IC50 in experiment [2] and in experiment [1] were 3.16 µM and 63.1 nM, respectively.

`CN(C)CCc1c[nH]c2ccc(Cc3nnnn3C)cc12` returned an IC50 in experiment [1] of 25.1 nM.

Compound `Cc1nccn1-c1ccc2[nH]cc(CCN(C)C)c2c1` came in with an IC50 in experiment [1] of 7.94 nM.
